The values that follow come from patent US20100056482A1, “Calixarene Derivatives as Anticancer Agent” (CENTRE NATIONAL DE LA RECHERCHE SCIENTIFIQUE-CNRS, priority 2006, published 2010).

Common to all, as to assay type: cell-based
In test [1] the test system is WBC (leucocytes), non tumoral cells. Description: MTS cell viability, WBC (Example 2). As to conditions: Leucocyte, MTS on 3rd day. As for the experimental part:
(§1) The cells (0.2×10^6/ml) were incubated in a sterile fashion in 100 μl of culture medium (RPMI-1640 supplemented with 10% foetal calf serum, penicillin, streptomycin and amphotericin B) at day DO with variable quantities (from […]) of C4diP, tBuC4diP or C8C4diP at 37° C. and 5% CO2 in a water-saturated atmosphere. On the 3rd day, 20 μl of MTS (non radioactive cell proliferation test (Promega Cat. #: G 3580) are added to the previous 100 μl and then a spectrophotometric reading is carried out at 490 nm after 2 hours of incubation against reagent blanks.
(§2) The cell lines used are as follows: • keratinocytes • WBC: leucocytes • MEWO: human skin melanoma • jurkat: T-cell acute lymphoblastic leukaemia. Cells of the T-lymphocyte type. • HL-60: promyelocytary acute leukaemia. Cells of the promyeloblast type. • Huh7: human hepatoma • Hep-G2: hepatocellular carcinoma.
(§3) The anticancerous effect of C4diP, tBuC4diP and C8C4diP is evaluated by measuring cell viability as a function of variable quantities of these compounds.
(§4) In order to determine the anticancer effect of C4diP, tBuC4diP and C8C4diP on a particular tumour cell culture, the IC50 was calculated.

Test [2] concerns keratinocytes, non tumoral cells. Description: MTS cell viability, keratinocytes (Example 2). The settings on record: Keratinocyte, Keratonicytes, MTS on 3rd day. As for the experimental part:
as §1, §2, §3, §4

The subject of test [3] is Hep-G2 hepatocellular carcinoma cells. Description: MTS cell viability, HepG2 (Example 2). As to conditions: Homo sapiens; HepG2, MTS on 3rd day. The method, then:
as §1, §2, §3, §4

The test system of test [4] is HL-60 promyelocytary acute leukaemia cells. As to the kind of experiment: MTS cell viability, HL-60 (Example 2). The settings on record: Homo sapiens; HL-60, MTS on 3rd day. As for the experimental part:
as §1, §2, §3, §4

The test system of test [5] is Huh7 human hepatoma cells. Description: MTS cell viability, Huh7 (Example 2). The settings on record: Huh 7, MTS on 3rd day. As for the experimental part:
as §1, §2, §3, §4

Test [6] concerns jurkat T-cell acute lymphoblastic leukaemia cells. As to the kind of experiment: MTS cell viability, Jurkat (Example 2). The settings on record: Homo sapiens, MTS on 3rd day. As for the experimental part: as §1, §2, §3, §4
Test [7] has as its system MEWO human skin melanoma cells. Description: MTS cell viability, Mewo (Example 2). The settings on record: MTS on 3rd day. As for the experimental part: as §1, §2, §3, §4
The subject of test [8] is human PBMC (peripheral blood mononuclear cells). As to the kind of experiment: MTS cell viability, human PBMC primary culture (Example 3). As to conditions: primary culture of human PBMC (WBC, healthy lymphocytes), read-out: IC50 (mean concentration for 50% mortality). The method, then:
The cells (0.2×10^6/ml) were incubated in a sterile fashion in 100 μl of culture medium (RPMI-1640 supplemented with 10% foetal calf serum, penicillin, streptomycin and amphotericin B) at day DO with variable quantities (from […]) of C4diP at 37° C. and 5% CO2 in a water-saturated atmosphere. At the 4th day, 20 μl of MTS (non-radioactive cell proliferation test (Promega Cat. #: G 3580) is added to the previous 100 μl and then a spectrophotometric reading is carried out at 490 nm after 2 hours of incubation against reagent blanks.
In order to determine the anticancer effect of C4diP on a particular culture of tumour cells, the IC50 was calculated.
The protocol used is that described previously in example 1. When vinblastin is used in the culture medium, it replaces C4diP.

In the case of `CCCCCCCC(=O)/C(C)=C/C(Cc1cc(C(=O)CCCCCCC)cc(Cc2cc(C(=O)CCCCCCC)cc(Cc3cc(C(=O)CCCCCCC)cc(CC)c3OP(=O)(O)O)c2O)c1OP(=O)(O)O)=C(\C)O` [C8C4diP, para-octanoyl-calyx[4]arene dihydroxyphosphonic acid], the IC50 in test [1] was determined as 95 µM; in test [2], 46 µM; in test [3], 1000 µM; in test [4] it was 1000 µM; in test [5], 270 µM; in test [6], 113 µM. For the same molecule, the IC50 in test [7] amounted to 1000 µM.
As to `CC[C@]1(O)C[C@@H]2CN(CCc3c([nH]c4ccccc34)[C@@](C(=O)OC)(c3cc4c(cc3OC)N(C)[C@H]3[C@@](O)(C(=O)OC)[C@H](OC(C)=O)[C@]5(CC)C=CCN6CC[C@]43[C@@H]65)C2)C1` [vinblastin, reference compound], the IC50 in test [8] was 0.005 µM.
